How the values were obtained:
[1] = Compound cytotoxicity, XTT-based colorimetric assay; assay type: cell-based
Method: Compound cytotoxicity and the corresponding CC50 values were determined using the same protocol as described in the antiviral assay except that uninfected cells were used. Cytotoxicity was assessed on day 4 in uninfected MT2 cells by using a XTT (2,3-bis[2-Methoxy-4-nitro-5-sulfophenyl]-2H-tetrazolium-5-carboxyanilide inner salt)-based colorimetric assay (Sigma-Aldrich, St Louis, Mo.). Biological data for select compounds of the invention are contained in Table 1 and Table 1a

[2] = tested on: recombinant NL4-3 virus (nef section replaced with Renilla luciferase gene) in MT-2 cells; assay: HIV cell culture assay (antiviral activity, luciferase readout); assay type: cell-based; settings: MT-2 cells infected for 4-5 days with recombinant NL4-3 luciferase virus
Method: HIV cell culture assay—MT-2 cells, 293T cells and the proviral DNA clone of NL4-3 virus were obtained from the NIH AIDS Research and Reference Reagent Program. MT-2 cells were propagated in RPMI 1640 media supplemented with 10% heat inactivated fetal bovine serum (FBS), 100 μg/ml penicillin G and up to 100 units/mL streptomycin. The 293T cells were propagated in DMEM media supplemented with 10% heat inactivated FBS, 100 μg/mL penicillin G and 100 μg/mL streptomycin. A recombinant NL4-3 proviral clone, in which a section of the nef gene was replaced with the Renilla luciferase gene, was used to make the reference virus used in these studies. The recombinant virus was prepared through transfection of the recombinant NL4-3 proviral clone into 293T cells using Transit-293 Transfection Reagent from Mirus Bio LLC (Madison, Wis.). Supernatent was harvested after 2-3 days and the amount of virus present was titered in MT-2 cells using luciferase enzyme activity as a marker by measuring luciferase enzyme activity. Luciferase was quantitated using the EnduRen Live Cell Substrate from Promega (Madison, Wis.). Antiviral activities of compounds toward the recombinant virus were quantified by measuring luciferase activity in MT-2 cells infected for 4-5 days with the recombinant virus in the presence of serial dilutions of the compound.
The 50% effective concentration (ECs) was calculated by using the exponential form of the median effect equation where (Fa)=1/[1+(ED50/drug conc.)^m] (Johnson Va., Byington RT. Infectivity Assay. In Techniques in HIV Research. ed. Aldovini A, Walker BD. 71-76. New York: Stockton Press. 1990).

[3] = human, uninfected MT2 cells, Table 1a, day 4, XTT
[4] = human, uninfected MT2 cells, Table 1, day 4, XTT

**Q.** For `C[Si](C)(C)CCOCn1ncc2nc(C(Cc3cc(F)cc(F)c3)NC(=O)Cc3c[nH]c4ccc(F)cc34)c(-c3ccc4scnc4c3)cc21` (stereo not drawn) [Int 6a, N-(1-(6-(benzo[d]thiazol-5-yl)-1-((2-(trimethylsilyl)ethoxy)methyl)-1H-pyrazolo[4,3-b]pyridin-5-yl)-2-(3,5-difluorophenyl)ethyl)-2-(5-fluoro-1H-indol-3-yl)acetamide], which CC50 at 4 days ([1]; human; Table 1; uninfected MT2 cells, day 4, XTT) is on record?
**A.** 29200 nM

**Q.** And the EC50 ([2]; Renilla, NL43, Table 1)?
**A.** 110 nM

**Q.** What does the source list for `CC(C)n1nc(NS(C)(=O)=O)c2c(Cl)ccc(-n3c([C@H](Cc4cc(F)cc(F)c4)NC(=O)Cn4nc(C(F)F)c5c4C(F)(F)[C@@H]4C[C@H]54)nc4ncccc4c3=O)c21` (mixture of isomers) [Example 43.2, N-[(1S)-1-{3-[4-chloro-3-methanesulfonamido-1-(propan-2-yl)-1H-indazol-7-yl]-4-oxo-3H,4H-pyrido[2,3-d]pyrimidin-2-yl}-2-(3,5-difluorophenyl)ethyl]-2-[(2S,4R)-9-(difluoromethyl)-5,5-difluoro-7,8-diazatricyclo[4.3.0.0^2,4]nona-1(6),8-dien-7-yl]acetamide]?
**A.** CC50 at 4 days [1, 3]: > 10000 nM; EC50 ([2]; Renilla, NL43, Table 1a): 0.132 nM

**Q.** Which results are given for `O=C(Cc1c[nH]c2ccc(O)cc12)N[C@@H](Cc1cc(F)cc(F)c1)c1nc2ccccc2nc1-c1ccc2c(c1)C(=O)NC2` [Example 158, (S)—N-(2-(3,5-difluorophenyl)-1-(3-(3-oxoisoindolin-5-yl)quinoxalin-2-yl)ethyl)-2-(5-hydroxy-1H-indol-3-yl)acetamide]?
**A.** CC50 at 4 days [1, 3]: > 10000 nM; EC50 ([2]; Renilla, NL43, Table 1a): 102 nM

**Q.** What does the source list for `COc1ccc2c(=O)n(-c3ccc(Cl)c4c(NS(=O)(=O)C5CC5)nn(CC(F)F)c34)c([C@H](Cc3cc(F)cc(F)c3)NC(=O)Cn3nc(C(F)F)c4c3C(F)(F)[C@@H]3C[C@H]43)nc2c1` (single isomer, unassigned) [Example 192]?
**A.** CC50 at 4 days [1, 3]: > 1000 nM; EC50 ([2]; Renilla, NL43, Table 1a): 0.04 nM

**Q.** What does the source list for `Cn1nc(NS(C)(=O)=O)c2c(Cl)ccc(-n3c([C@H](Cc4cc(F)cc(F)c4)NC(=O)Cn4nc(C(F)F)c5c4C(F)(F)[C@@H]4C[C@H]54)nc4cc(C(C)(C)C)ccc4c3=O)c21` (mixture of isomers) [Example 215, N—((S)-1-(7-(tert-Butyl)-3-(4-chloro-1-methyl-3-(methylsulfonamido)-1H-indazol-7-yl)-4-oxo-3,4-dihydroquinazolin-2-yl)-2-(3,5-difluorophenyl)ethyl)-2-((3bS,4aR)-3-(difluoromethyl)-5,5-difluoro-3b,4,4a,5-tetrahydro-1H-cyclopropa[3,4]cyclopenta[1,2-c]pyrazol-1-yl)acetamide]?
**A.** CC50 at 4 days [1, 3]: > 1000 nM; EC50 ([2]; Table 1a): 354 nM

**Q.** Which CC50 at 4 days [1, 3] does the source give for `O=C(Cn1nc(C(F)F)c2c1C(F)(F)[C@@H]1C[C@H]21)N[C@@H](Cc1cc(F)cc(F)c1)c1nc2cn[nH]c2cc1-c1ccc(S(=O)(=O)N2CCOCC2)cc1` [Example 25, 2-((3bS,4aR)-3-(difluoromethyl)-5,5-difluoro-3b,4,4a,5-tetrahydro-1H-cyclopropa[3,4]cyclopenta[1,2-c]pyrazol-1-yl)-N—((S)-2-(3,5-difluorophenyl)-1-(6-(4-(morpholinosulfonyl)phenyl)-1H-pyrazolo[4,3-b]pyridin-5-yl)ethyl)acetamide] here?
**A.** 7940 nM

**Q.** And the EC50 ([2]; Renilla, NL43, Table 1a)?
**A.** 5.78 nM

**Q.** For `COc1cc(F)c2c(=O)n(-c3ccc(Cl)c4c(NS(C)(=O)=O)nn(C)c34)c([C@H](Cc3cc(F)cc(F)c3)NC(=O)Cn3nc(C(F)F)c4c3C(F)(F)[C@@H]3C[C@H]43)nc2c1` (mixture of isomers) [Example 185, N—((S)-1-(3-(4-chloro-1-methyl-3-(methylsulfonamido)-1H-indazol-7-yl)-5-fluoro-7-methoxy-4-oxo-3,4-dihydroquinazolin-2-yl)-2-(3,5-difluorophenyl)ethyl)-2-((3bS,4aR)-3-(difluoromethyl)-5,5-difluoro-3b,4,4a,5-tetrahydro-1H-cyclopropa[3,4]cyclopenta[1,2-c]pyrazol-1-yl)acetamide], which CC50 at 4 days [1, 3] is on record?
**A.** > 1000 nM

**Q.** And the EC50 ([2]; Renilla, NL43, Table 1a)?
**A.** 87.3 nM

**Q.** Which CC50 at 4 days [1, 3] does the source give for `Cn1nc(NS(C)(=O)=O)c2c(Cl)ccc(-n3c([C@H](Cc4cc(F)cc(F)c4)NC(=O)Cn4nc(C(F)F)c5c4C(F)(F)[C@@H]4C[C@H]54)nc4c(F)cccc4c3=O)c21` (single isomer, unassigned) [Example 71] here?
**A.** > 1000 nM

**Q.** What about the EC50 ([2]; Renilla, NL43, Table 1a) of the same compound?
**A.** 9.58 nM

**Q.** What does the source list for `Cn1nc(NS(C)(=O)=O)c2c(Cl)ccc(-c3cc4[nH]ccc4nc3C(Cc3cc(F)cc(F)c3)NC(=O)Cn3nc(C(F)F)c4c3C(F)(F)[C@@H]3C[C@H]43)c21` (single isomer, unassigned) [Example 5.1]?
**A.** CC50 at 4 days [1, 4]: > 10000 nM; EC50 ([2]; Table 1): 220 nM

**Q.** With `Cn1nc(NS(C)(=O)=O)c2c(Cl)ccc(-c3cc4cc[nH]c4nc3[C@@H](Cc3cc(F)cc(F)c3)NC(=O)Cn3nc(C(F)F)c4c3C(F)(F)[C@@H]3C[C@H]43)c21` (single isomer, unassigned) [Example 87] as the compound, how does the CC50 at 4 days [1, 3] read?
**A.** > 10000 nM

**Q.** And the EC50 ([2]; Renilla, NL43, Table 1a)?
**A.** 72.4 nM

**Q.** What does the source list for `COc1cc(F)c2c(=O)n(-c3ccc(Cl)c4c(NS(C)(=O)=O)nn(C)c34)c([C@H](Cc3cc(F)cc(F)c3)NC(=O)Cn3ccc(C4CC4)n3)nc2c1` (single isomer, unassigned) [Example 189]?
**A.** CC50 at 4 days [1, 3]: > 1000 nM; EC50 ([2]; Table 1a): 6.46 nM

**Q.** Which CC50 at 4 days [1, 4] does the source give for `N#Cc1ccc(-c2cc3[nH]ncc3nc2[C@H](Cc2cc(F)cc(F)c2)NC(=O)Cn2nc(C(F)F)c3c2C(F)(F)[C@@H]2C[C@H]32)cc1` [Example 10.5, N—((S)-1-(6-(4-cyanophenyl)-1H-pyrazolo[4,3-b]pyridin-5-yl)-2-(3,5-difluorophenyl)ethyl)-2-((3bS,4aR)-3-(difluoromethyl)-5,5-difluoro-3b,4,4a,5-tetrahydro-1H-cyclopropa[3,4]cyclopenta[1,2-c]pyrazol-1-yl)acetamide] here?
**A.** 9350 nM

**Q.** And the EC50 ([2]; Renilla, NL43, Table 1)?
**A.** 300 nM

**Q.** What does the source list for `Cn1nc(NS(C)(=O)=O)c2c(Cl)ccc(-n3c([C@H](Cc4cc(F)cc(F)c4)NC(=O)Cn4nc(C(F)F)c5c4C(F)(F)[C@@H]4C[C@H]54)nc4cc(Cl)cc(Cl)c4c3=O)c21` (single isomer, unassigned) [Example 179]?
**A.** CC50 at 4 days [1, 3]: > 1000 nM; EC50 ([2]; Table 1a): 0.077 nM

**Q.** With `Cn1nc(NS(C)(=O)=O)c2c(Cl)ccc(-n3c([C@H](Cc4cc(F)cc(F)c4)NC(=O)Cc4c[nH]c5ccc(O)cc45)nc4ncccc4c3=O)c21` [Example 53, N-[(1S)-1-[3-(4-chloro-3-methanesulfonamido-1-methyl-1H-indazol-7-yl)-4-oxo-3H,4H-pyrido[2,3-d]pyrimidin-2-yl]-2-(3,5-difluorophenyl)ethyl]-2-(5-hydroxy-1H-indol-3-yl)acetamide] as the compound, how does the CC50 at 4 days [1, 3] read?
**A.** > 1000 nM

**Q.** What about the EC50 ([2]; Renilla, NL43, Table 1a) of the same compound?
**A.** 5.71 nM

**Q.** Which results are given for `Cn1nc(NS(C)(=O)=O)c2c(Cl)ccc(-n3c([C@H](Cc4cc(F)cc(F)c4)NC(=O)Cn4ccc(C5CC5)n4)nc4ncccc4c3=O)c21` [Example 15, (S)—N-(1-(3-(4-chloro-1-methyl-3-(methylsulfonamido)-1H-indazol-7-yl)-4-oxo-3,4-dihydropyrido[2,3-d]pyrimidin-2-yl)-2-(3,5-difluorophenyl)ethyl)-2-(3-cyclopropyl-1H-pyrazol-1-yl)acetamide]?
**A.** CC50 at 4 days [1, 4]: > 1000 nM; EC50 ([2]; Renilla, NL43, Table 1): 320 nM
